{"source": "paper PMC11705955", "about": "“Lack of activity of HIV-1 integrase strand-transfer inhibitors on recombinase activating gene (RAG) activity at clinically relevant concentrations” (Microbiology Spectrum, 2024)", "origin": "cited, not measured here", "key": {"immunological competence": {"tested_on": "immunological competence", "design": "method as in PMID 22790968", "details": "TCR Vβ usage by flow cytometry and T cell-dependent antibody response; cited from earlier work"}, "RAG1": {"target": "RAG1", "details": "biolayer interferometry; read-out: Dissociation constant from RAG1; cited from earlier work"}, "T or B cells": {"tested_on": "T or B cells", "details": "cited from earlier work"}}, "data": [{"smiles": "C[C@@H]1CCO[C@H]2Cn3cc(C(=O)NCc4ccc(F)cc4F)c(=O)c(O)c3C(=O)N12", "note": "[DTG, dolutegravir]", "values": [{"measurement": "Impact on immunological competence in juvenile rats", "setting": "immunological competence", "result": "no impact on immunological competence"}]}, {"smiles": "COc1cc2c(cc1Cc1cccc(Cl)c1F)c(=O)c(C(=O)O)cn2[C@H](CO)C(C)C", "note": "[EVG, elvitegravir]", "values": [{"measurement": "Kd", "setting": "RAG1", "result": 32.5, "unit": "µM"}, {"measurement": "Effect on T or B cells in treated mice", "setting": "T or B cells", "result": "did not show a large decrease in T or B cells"}]}]}
